Measured values taken from patent publication US11247982B2, “NMDA receptor modulators, compositions comprising same and use of these compounds in the treatment of diseases involving the central nervous system” (ADPUERIVITAM, priority 2017, dated 2022).

System: NMDA receptors
Assay: Whole-cell patch-clamp of NMDA currents in cultured rat embryonic hippocampal neurons
Assay type: cell-based
Settings: for A. NMDA current: Summary: 10 μM test compound; for C. Channel closing kinetics: T run-down (ms) / C. Channel closing kinetics: Tau (s) / D. Desensitization: Slope (pA/s) / C. Channel closing kinetics: Max slope (pA/s) / B. Channel opening kinetics: Min slope (pA/s) / C. Channel closing kinetics: Run down slope (pA/s) / B. Channel opening kinetics: Run-up slope (pA/s) / B. Channel opening kinetics: T run-up (ms) / B. Channel opening kinetics: Time to peak (ms): 10 μM test compound vs NMDA alone; for C. Channel closing kinetics: T run-down (ms): closing time between 90% and 10% of max current; for C. Channel closing kinetics: T run-down (ms) / C. Channel closing kinetics: Tau (s) / D. Desensitization: Slope (pA/s) / C. Channel closing kinetics: Max slope (pA/s) / B. Channel opening kinetics: Min slope (pA/s) / C. Channel closing kinetics: Run down slope (pA/s) / B. Channel opening kinetics: Run-up slope (pA/s) / B. Channel opening kinetics: T run-up (ms) / B. Channel opening kinetics: Time to peak (ms) / A. NMDA current: Width 50 (ms) / A. NMDA current: Peak area (pA · s): (n) = cells; for C. Channel closing kinetics: Tau (s): closing time of 50% of the channels (half-life); for D. Desensitization: Slope (pA/s): desensitization speed during the application of NMDA; for C. Channel closing kinetics: Max slope (pA/s): greatest closing speed; for B. Channel opening kinetics: Min slope (pA/s): greatest opening speed; for C. Channel closing kinetics: Run down slope (pA/s): mean closing speed during T run-down; for B. Channel opening kinetics: Run-up slope (pA/s): mean opening speed during T run-up; for B. Channel opening kinetics: T run-up (ms): opening time between 10% and 90% of max current; for B. Channel opening kinetics: Time to peak (ms): time to reach the maximum current; for A. NMDA current: Width 50 (ms) / A. NMDA current: Peak area (pA · s) / A. NMDA current: Height (pA): 10 μM test compound with 100 μM NMDA + 5 μM L-glycine vs NMDA alone; for A. NMDA current: Width 50 (ms): duration of current above 50% of Height; for A. NMDA current: Peak area (pA · s): total current integrated over time; for A. NMDA current: Height (pA): −60 mV, maximum current, (n) = number of cells; for A. NMDA current: Washable / B. Channel opening kinetics: Washable / C. Channel closing kinetics: Washable / D. Desensitization: Washable: persistence of effect, NMDA wash vs NMDA + test compound
Procedure: Female Wistar rats in gestation with 17-day-old embryos (E17) were obtained from Janvier Labs. On the day of receipt of the animals, the rat is sacrificed and the embryos are dissected under sterile conditions to remove their brain, which is then micro-dissected in GBSS (Gey's balanced salt solution) medium to obtain the hippocampus from the two hemispheres, while discarding the meninges. The tissues harvested from at least five embryos are placed in 2 ml of DMEM medium (registered trademark) (Dulbecco's modified Eagle's medium—from Life Technologies) with 2% of fetal calf serum, 2 mM of glutamine, 0.1 mg/mL of penicillin-streptomycin antibiotic mixture (Life Technologies) and subjected to mechanical dissociation of the cells by passing through round-ended glass pipettes with an inside diameter decreasing from 0.5 to 0.2 mm. The cells are counted and 100 μl of suspension containing 25×10^3 cells are placed on a glass slide coated with polylysine (poly-D-lysine hydrobromide from 75 to 150 kDa, from Sigma) of Ø 12 mm, in 12-well culture plates and incubated for 2 hours at 37° C. under an atmosphere containing 5% of CO2 to allow cell adhesion. A volume of 2 mL of culture medium is added gently: Neurobasal (registered trademark) with 1/50 (v:v) serum-free supplement B-27® (Life Technologies), 2 mM of glutamine, 0.1 mg/ml of penicillin-streptomycin antibiotic mixture (from Life Technologies), and incubation is again performed under the same conditions. Half of the medium is replaced twice a week for maintenance. The neuronal cells will be able to differentiate over a period of 12 to 30 days. The cultures are monitored by phase-contrast microscopy: the extension of the neurites and of the synaptic connections is observed for the neurons, which represent the majority of the cells, while a few astrocytes are also present.
The electrophysiology post consists of an Olympus IMT-2 model inverted phase-contrast microscope placed on a TMC antivibration table in a Faraday cage. The installation also comprises an SF-77B model Warner multichannel perfusion system, a Burleigh PCS-5000 model 3D-micromanipulator system holding the microelectrode probe, a Warner PC-505 model patch-clamp amplifier and a PowerLab 8/35 model 8-channel analog-digital interface from ADInstruments. The glass microelectrode is manufactured with thin-walled borosilicate capillary tubes (1.5 OD×1.17 ID×100 L mm, from Harvard Apparatus) and prepared with the Narishige PC10 model vertical electrode puller to obtain an electrical resistance of about 5 MOhm. The electrode of the pipette is filled with the intracellular medium composed of (in mM): 100 CsF, 40 CsCl, 1.2 CaCl2, 20 HEPES, 10 EGTA, pH=7.4 (adjusted with CsOH).
The culture on its slide is placed in a 60 mm Petri dish with 2 ml of extracellular medium composed of (in mM): 140 NaCl, 5 KCl, 1.2 CaCl2, 1.5 MgCl2, 12 HEPES, 12 Na-HEPES, 33 glucose, pH=7.4.
The neuron selected is patched in the whole cell configuration. The maintenance potential is set at −60 mV.
The assembled glass microtubes of square cross section of the perfusion system each provide a stable stream of different composition. The “TTX” default medium corresponds to the extracellular medium to which is added 1 μM tetrodotoxin. The “NMDA” application medium is “TTX” supplemented with 100 μM of NMDA (N-methyl-D-aspartate) as agonist, and 5 μM of L-glycine as co-agonist. The “NMDA+ test compound” medium corresponds to the “NMDA” supplemented with 10 μM of the test compound. The “NMDA wash” is identical to the “NMDA” medium.
As a general rule, three applications of each test compound are performed on the patched cell, for 2 seconds at intervals of 3 minutes (to allow inversion of desensitization). The sequence of the applications is: 1) “NMDA”, 2) “NMDA+ test compound”, 3) “NMDA wash”. The “TTX” medium is applied by default, before and after each application of test compound. […]

Row | SMILES | antagonistic effect on the maximum current amplitude (concentration of less than 1 μM) | A. NMDA current: Summary | C. Channel closing kinetics: T run-down (ms) | C. Channel closing kinetics: Tau (s) | D. Desensitization: Slope (pA/s) | C. Channel closing kinetics: Max slope (pA/s) | B. Channel opening kinetics: Min slope (pA/s) | C. Channel closing kinetics: Run down slope (pA/s) | B. Channel opening kinetics: Run-up slope (pA/s) | B. Channel opening kinetics: T run-up (ms) | B. Channel opening kinetics: Time to peak (ms) | A. NMDA current: Width 50 (ms) | A. NMDA current: Peak area (pA · s) | A. NMDA current: Height (pA) | A. NMDA current: Washable | B. Channel opening kinetics: Washable | C. Channel closing kinetics: Washable | D. Desensitization: Washable
1 | Cc1ccc2[nH]c(=O)c(C3=NN(C(=O)CCC(=O)O)C(c4ccc(Br)cc4)C3)c(-c3ccccc3)c2c1 (stereo not shown) [DQP1105, reference compound] | maintained at the same level |  |  |  |  |  |  |  |  |  |  |  |  |  |  |  |  | 
2 | O=C(C[C@]1(O)C(=O)N(CCc2c[nH]c3ccccc23)c2ccccc21)c1cccc(Cl)c1 [Molecule 1] |  | Antagonist (4+) | 12 ± 6% (7) | 29 ± 13% (6) | −59 ± 8% (7) | −27 ± 10% (7) | −35 ± 12% (7) | −48 ± 8% (7) | −45 ± 7% (7) | 3 ± 3% (7) | 1 ± 4% (7) | 0 ± 9% (7) | −37 ± 12% (7) | −43 ± 8% (7) | No | No | No | No
3 | O=C(C[C@]1(O)C(=O)N(CCc2c[nH]c3ccccc23)c2ccccc21)c1ccccc1Cl [Molecule 2] |  | Antagonist (6+) | −15 ± 5% (7) | 44 ± 28% (7) | −70 ± 17% (7) | −28 ± 8% (7) | −25 ± 9% (7) | −63 ± 13% (7) | −61 ± 10% (7) | −16 ± 13% (7) | −7 ± 4% (7) | −49 ± 14% (7) | −65 ± 13% (7) | −66 ± 10% (7) | Yes | (Yes/No) | (Yes/No) | (Yes)
4 | O=C(C[C@]1(O)C(=O)N(CCc2c[nH]c3ccccc23)c2ccccc21)c1ccccc1F [Molecule 3] |  | Antagonist (2+) | 2 ± 4% (13) | 17 ± 5 (13) % | −43 ± 8% (13) | −22 ± 4% (13) | −22 ± 4 (13) % | −30 ± 8% (13) | −23 ± 5% (13) | −8 ± 6% (13) | −5 ± 3% (13) | −10 ± 7% (13) | −16 ± 8% (13) | −24 ± 7% (13) | (No/Yes) | (Yes/No) | No | No
